Experimental data reported in ChEMBL document CHEMBL5346923, “Novel pyridinium cationic pleuromutilin analogues overcoming bacterial multidrug resistance” (Eur J Med Chem, 2023).

Columns and labels:
Format in all cases: functional
[1] = tested on: Enterococcus; experiment: Antibacterial activity against vancomycin-resistant Enterococcus ATCC 700221 assessed as inhibition of bacterial growth measured after 24 hrs by MH broth based assay
[2] = tested on: Bacillus subtilis; experiment: Antibacterial activity against Bacillus subtilis ATCC 6633 assessed as inhibition of bacterial growth measured after 24 hrs by MH broth based assay
[3] = tested on: Staphylococcus aureus; experiment: Antibacterial activity against Staphylococcus aureus ATCC 29213 assessed as inhibition of bacterial growth measured after 24 hrs by MH broth based assay
[4] = tested on: Staphylococcus aureus; experiment: Antibacterial activity against methicillin-resistant Staphylococcus aureus ATCC 43300 assessed as inhibition of bacterial growth measured after 24 hrs by MH broth based assay
[5] = tested on: Streptococcus pneumoniae; experiment: Antibacterial activity against Streptococcus pneumoniae ATCC 49619 assessed as inhibition of bacterial growth measured after 24 hrs by MH broth based assay
[6] = tested on: Staphylococcus epidermidis; experiment: Antibacterial activity against methicillin-resistant Staphylococcus epidermidis ATCC 51625 assessed as inhibition of bacterial growth measured after 24 hrs by MH broth based assay
[7] = tested on: Klebsiella pneumoniae; experiment: Antibacterial activity against Klebsiella pneumonia CMCC (B) 46117 assessed as inhibition of bacterial growth measured after 24 hrs by MH broth based assay
[8] = tested on: Escherichia coli; experiment: Antibacterial activity against Escherichia coli ATCC 25922 assessed as inhibition of bacterial growth measured after 24 hrs by MH broth based assay
[9] = tested on: Proteus; experiment: Antibacterial activity against Proteus CMCC (B) 49027 assessed as inhibition of bacterial growth measured after 24 hrs by MH broth based assay
[10] = tested on: Escherichia coli; experiment: Antibacterial activity against Escherichia coli MG1655 assessed as inhibition of bacterial growth measured after 24 hrs by MH broth based assay
[11] = tested on: Escherichia coli; experiment: Antibacterial activity against Escherichia coli MG1655 harbouring acrB gene assessed as inhibition of bacterial growth measured after 24 hrs by MH broth based assay

Compound	MIC [1] [µg/mL]	MIC [2] [µg/mL]	MIC [3] [µg/mL]	MIC [4] [µg/mL]	MIC [5] [µg/mL]	MIC [6] [µg/mL]	MIC [7] [µg/mL]	MIC [8] [µg/mL]	MIC [9] [µg/mL]	MIC [10] [µg/mL]	MIC [11] [µg/mL]
C=C[C@]1(C)C[C@@H](OC(=O)CSc2cc[n+](CC3CCCO3)cc2)[C@]2(C)[C@H](C)CC[C@]3(CCC(=O)[C@H]32)[C@@H](C)[C@@H]1O.[I-] (stereo not given in full)	64	64	1	1	0.125	0.25	64	64	> 64	64	2
C=C[C@]1(C)C[C@@H](OC(=O)CSc2cc[n+](CC(=O)NCc3ccccc3C)cc2)[C@]2(C)[C@H](C)CC[C@]3(CCC(=O)[C@H]32)[C@@H](C)[C@@H]1O.[I-]	64	64	0.5	0.5	0.5	1	8	64	64	32	1
C=C[C@]1(C)C[C@@H](OC(=O)CSc2cc[n+](COC)cc2)[C@]2(C)[C@H](C)CC[C@]3(CCC(=O)[C@H]32)[C@@H](C)[C@@H]1O.[I-]	32	64	0.25	0.25	0.25	0.5	64	64	> 64	64	1
C=C[C@]1(C)C[C@@H](OC(=O)CSc2cc[n+](CC(C)C)cc2)[C@]2(C)[C@H](C)CC[C@]3(CCC(=O)[C@H]32)[C@@H](C)[C@@H]1O.[I-]	64	64	0.5	0.5	0.25	0.5	64	64	> 64	64	2
C=C[C@]1(C)C[C@@H](OC(=O)CSc2cc[n+](CCCCCCCCCCC(=O)O)cc2)[C@]2(C)[C@H](C)CC[C@]3(CCC(=O)[C@H]32)[C@@H](C)[C@@H]1O.[I-]	64	64	0.5	0.5	0.5	2	64	64	64	64	32
C=C[C@]1(C)C[C@@H](OC(=O)CSc2cc[n+](CC(=O)N(Cc3ccccc3)Cc3ccccc3)cc2)[C@]2(C)[C@H](C)CC[C@]3(CCC(=O)[C@H]32)[C@@H](C)[C@@H]1O.[I-]	64	16	0.25	0.25	< 0.031	0.063	32	64	> 64	64	4
C=C[C@]1(C)C[C@@H](OC(=O)CSc2cc[n+](CCCCCCCCCCCC)cc2)[C@]2(C)[C@H](C)CC[C@]3(CCC(=O)[C@H]32)[C@@H](C)[C@@H]1O.[I-]	16	8	8	8	4	8	32	32	64	32	8
C=C[C@]1(C)C[C@@H](OC(=O)CSc2cc[n+](CCCC)cc2)[C@]2(C)[C@H](C)CC[C@]3(CCC(=O)[C@H]32)[C@@H](C)[C@@H]1O.[Br-]	16	64	0.25	0.25	0.063	0.125	32	64	> 64	64	1
C=C[C@]1(C)C[C@@H](OC(=O)CSc2cc[n+](CCCCCC(=O)O)cc2)[C@]2(C)[C@H](C)CC[C@]3(CCC(=O)[C@H]32)[C@@H](C)[C@@H]1O.[I-]	64	> 64	8	16	4	8	> 64	> 64	> 64	64	32
C=C[C@]1(C)C[C@@H](OC(=O)CSc2cc[n+](CCCCCCCCCC(=O)O)cc2)[C@]2(C)[C@H](C)CC[C@]3(CCC(=O)[C@H]32)[C@@H](C)[C@@H]1O.[I-]	64	> 64	4	4	1	2	> 64	> 64	> 64	> 64	32
